For data set [1] the following is noted: cited from earlier work.
The conditions of data set [2]: FIG. 6. From the text: FIG. 6 illustrates blood plasma concentrations at various times achieved through various means of delivery. This figure illustrates the time necessary to achieve a particular blood plasma concentration.
For data set [3] the following is noted: in vivo; cited from earlier work.
The conditions of data set [4]: in vivo; cited from earlier work. The source holds these as a separate data set.

Counter-ions that a name gives are not always drawn.

In the case of `CN(C)CCC=C1c2ccccc2C=Cc2ccccc21` [Cyclobenzaprine hydrochloride, cyclobenzaprine hydrochloride], the solubility in alcohol entry in data set [1] (alcohol) was “freely soluble”. Besides, the “solubility in hydrocarbon solvents” value in data set [1] (hydrocarbon solvents) is “insoluble”. In addition, the solubility in isopropanol entry in data set [1] (isopropanol) was “sparingly soluble”. In addition, the solubility in water result in data set [1] (water) was “freely soluble”.
The half-life is how long it takes for the measured level to halve. With `CN(C)CCC=C1c2ccccc2C=Cc2ccccc21` [cyclobenzaprine], the colonic absorption entry in data set [2] is “colonic absorption”. Besides, the half-life in data set [3] is 24 to 72 h. The reported side effects entry in data set [4] is “sedation and dry mouth”.

The values are drawn from patent publication US20040197407A1, “Methods and dosage forms with modified layer geometry” (priority 2003, published 2004).
